According to patent publication US9278903B2, “Crystal form of prostaglandin analogue, and preparation method and use thereof” (Shanghai Techwell Biopharmaceutical Co., Ltd., priority 2012, dated 2016):
One block for each molecule: values may come before it.

Assays:
[1] = cited from earlier work
[2] = Storage stability of crystalline form A (HPLC); format: physicochemical
Experimental: (§1) Column: 4.6×250 mm 5 μm C18 column; flow rate: 2 ml/min; injection volume: 10 μl; column temperature: 35° C.; detection wavelength: 217 nm; mobile phase: acetonitrile/water/trifluoroacetic acid; Elution condition: water (60%): acetonitrile (40%): trifluoroacetic acid (0.1%); detection limit: 10 ng.
[…] […] Therefore, crystalline form A of compound I prepared by the method of the present invention has unique stability.

[3] = Stability comparison at 40° C. (HPLC purity); format: physicochemical
Experimental: as §1
The purity mentioned in the following Examples is HPLC purity.
Compound I from example 2, example 3 and example 4 were obtained, and subjected to stability test at 40° C., respectively. […] Therefore, crystalline form A of compound I prepared by the method of the present invention has unique stability.

[4] = cited from earlier work; remark: listed apart in the source

SMILES: CCCCC[C@H](O)/C=C/[C@@H]1[C@H]2C/C(=C/CCCC(=O)O)O[C@H]2C[C@H]1O [Epoprostenol]
- Half-life in circulation [1]: 3 to 5 min

- Degradation on storage (HPLC) ([2]; stored at 0° C. for 12 months): did not degrade at all
- Degradation on storage (HPLC) ([2]; stored at 20° C. for 6 months): did not degrade at all
- Degradation on storage (HPLC) ([2]; stored at 40° C. for 2 months): did not degrade at all
- Purity at 0 day (40° C.) ([3]; 0 day): 99.90%
- Purity at 10 day (40° C.) ([3]; 10 day): 99.91%
- Purity at 30 day (40° C.) ([3]; 30 day): 99.89%
- Purity at 90 day (40° C.) ([3]; 90 day): 99.88%
SMILES: CCCCC[C@H](O)CC[C@@H]1[C@H]2Cc3cccc(OCC(=O)O)c3C[C@H]2C[C@H]1O [Example 4]

SMILES: CCCCC[C@H](O)CC[C@@H]1[C@H]2Cc3cccc(OCC(=O)O)c3C[C@H]2C[C@H]1O [Treprostinil]
- Stability under physiological conditions [4]: stable under physiological conditions
